The results in this text go back to patent US6093838A, “Amines substituted with a dihydro-benzofuranyl or with a dihydro-isobenzofuranyl group, an aryl or heteroaryl group and an alkyl group, having retinoid-like biological activity” (Allergan Sales, Inc., priority 1999, dated 2000).

The target in experiment [1] is T1, RXRα (Homo sapiens, UniProt P19793).
T1 construct: expressed in transfected cells
T1 sequence (P19793 1-462): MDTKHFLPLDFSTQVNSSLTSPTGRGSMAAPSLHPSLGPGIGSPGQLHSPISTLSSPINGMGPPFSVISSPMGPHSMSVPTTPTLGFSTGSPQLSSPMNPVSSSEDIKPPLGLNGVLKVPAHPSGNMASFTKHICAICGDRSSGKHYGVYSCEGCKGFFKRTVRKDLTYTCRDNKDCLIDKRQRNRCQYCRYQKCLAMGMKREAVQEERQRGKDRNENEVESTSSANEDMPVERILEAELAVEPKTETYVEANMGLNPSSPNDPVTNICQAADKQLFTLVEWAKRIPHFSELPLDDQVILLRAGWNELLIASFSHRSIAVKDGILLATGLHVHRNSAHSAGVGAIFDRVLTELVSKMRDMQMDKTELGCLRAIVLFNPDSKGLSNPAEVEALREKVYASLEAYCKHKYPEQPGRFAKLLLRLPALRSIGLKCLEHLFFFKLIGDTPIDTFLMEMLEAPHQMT
The experiment is described as follows: ligand binding assay, RXRα. The settings on record: read-out: RXR Bind Ki α. An excerpt: (§1) Other assays described below, measure the ability of the compounds of the present invention to bind to, and/or activate various retinoid receptor subtypes. When in these assays a compound binds to a given receptor subtype and activates the transcription of a reporter gene through that subtype, then the compound is considered an agonist of that receptor subtype. […] In the below described assays the ability of the compounds to bind to RARα, RARβ, RARγ, RXRα, RXRβ and RXRγ receptors, and the ability or inability of the compounds to activate transcription of a reporter gene through these receptor subtypes can be tested. […] However, some of the compounds of the invention may behave as retinoid antagonists or partial antagonists and/or as inverse agonists. Because of the complex distribution of the different retinoid receptors in various organs of the mammalian body partial agonists and partial antagonists and compounds which have the characteristics of both may lend themselves to particularly useful therapeutic applications and may avoid serious side effects of conventional retinoid drugs.
(§2) A holoreceptor transactivation assay and a ligand binding assay which measure the antagonist/agonist like activity of the compounds of the invention, or their ability to bind to the several retinoid receptor subtypes, respectively, are described in published PCT Application No. WO WO93/11755 (particularly on pages 30-33 and 37-41) published on Jun. 24, 1993, the specification of which is also incorporated herein by reference. A detailed experimental procedure for holoreceptor transactivations has been described by Heyman et al. Cell 68, 397-406, (1992); Allegretto et al. J. Biol. Chem. 268, 26625-26633, and Mangelsdorf et al. The Retinoids: Biology, Chemistry and Medicine, pp 319-349, Raven Press Ltd., New York, which are expressly incorporated herein by reference. The results obtained in this assay are expressed in EC50 numbers, as they are also in the chimeric receptor transactivation assay. The results of ligand binding assay are expressed in Kd numbers. (See Cheng et al. Biochemical Pharmacology Vol. 22 pp 3099-3108, expressly incorporated herein by reference.)
(§3) Table 1 discloses the activity of certain exemplary compounds of the invention in the above-described chimeric receptor transactivation assay, holoreceptor transactivation assay and a ligand binding assays. Particularly, the transactivation data pertaining to RAR receptors were obtained in the chimeric assay, and the data pertaining to transactivation of RXR receptors were obtained in the holoreceptor transactivation assay.

The target of experiment [2] is T2, RARα (Homo sapiens, UniProt P10276).
T2 sequence (P10276 1-462): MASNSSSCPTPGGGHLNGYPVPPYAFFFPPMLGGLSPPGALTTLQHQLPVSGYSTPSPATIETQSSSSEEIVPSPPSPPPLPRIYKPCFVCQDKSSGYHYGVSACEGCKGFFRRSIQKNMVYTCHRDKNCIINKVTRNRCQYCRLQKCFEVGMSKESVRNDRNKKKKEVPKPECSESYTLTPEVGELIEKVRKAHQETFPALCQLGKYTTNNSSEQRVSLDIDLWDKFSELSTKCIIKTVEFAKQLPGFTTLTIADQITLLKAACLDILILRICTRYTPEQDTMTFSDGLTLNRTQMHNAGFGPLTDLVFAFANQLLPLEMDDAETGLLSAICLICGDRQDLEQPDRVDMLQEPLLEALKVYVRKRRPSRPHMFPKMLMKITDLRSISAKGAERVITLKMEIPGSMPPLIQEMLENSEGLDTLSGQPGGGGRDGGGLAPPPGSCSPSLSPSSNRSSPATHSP
The experiment is described as follows: ligand binding assay, RARα. Particulars: read-out: RAR Bind. Ki α.
Excerpt: as §1, §2, §3

The target in experiment [3] is T3, RARγ (Homo sapiens, UniProt P13631).
T3 sequence (P13631 1-454): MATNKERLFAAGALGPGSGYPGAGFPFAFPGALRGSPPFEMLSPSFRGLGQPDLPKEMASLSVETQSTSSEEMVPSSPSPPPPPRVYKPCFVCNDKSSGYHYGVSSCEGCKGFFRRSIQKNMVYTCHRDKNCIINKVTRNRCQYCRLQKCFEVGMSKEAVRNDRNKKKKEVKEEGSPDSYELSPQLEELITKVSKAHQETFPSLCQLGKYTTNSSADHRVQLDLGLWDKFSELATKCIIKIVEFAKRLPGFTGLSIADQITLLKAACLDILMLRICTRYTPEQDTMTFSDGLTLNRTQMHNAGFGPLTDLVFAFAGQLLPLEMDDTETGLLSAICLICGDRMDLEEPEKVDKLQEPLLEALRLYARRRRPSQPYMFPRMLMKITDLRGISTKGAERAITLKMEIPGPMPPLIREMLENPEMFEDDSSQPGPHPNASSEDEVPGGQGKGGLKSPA
The experiment is described as follows: ligand binding assay, RARγ. Particulars: read-out: RAR Bind. Ki γ.
Excerpt: as §1, §2, §3

Experiment [4] addresses RXRγ. The experiment is described as follows: ligand binding assay, RXRγ. The settings on record: read-out: RXR Bind Ki γ.
Excerpt: as §1, §2, §3

For experiment [5], the target named is T4, RARβ (Homo sapiens, UniProt P10826).
T4 sequence (P10826 1-448 isoform P10826-2): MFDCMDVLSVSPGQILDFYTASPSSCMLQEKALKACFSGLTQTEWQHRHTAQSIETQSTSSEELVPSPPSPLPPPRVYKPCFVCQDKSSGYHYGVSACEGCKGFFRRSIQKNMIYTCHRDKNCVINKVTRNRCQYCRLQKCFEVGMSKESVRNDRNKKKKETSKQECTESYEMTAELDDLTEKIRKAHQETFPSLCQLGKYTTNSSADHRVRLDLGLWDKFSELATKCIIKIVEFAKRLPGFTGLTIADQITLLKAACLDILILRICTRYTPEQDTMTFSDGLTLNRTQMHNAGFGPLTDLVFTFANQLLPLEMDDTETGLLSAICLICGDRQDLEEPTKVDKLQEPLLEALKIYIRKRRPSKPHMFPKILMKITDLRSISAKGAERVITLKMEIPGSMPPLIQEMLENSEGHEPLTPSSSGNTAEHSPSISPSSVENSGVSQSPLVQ
The experiment is described as follows: ligand binding assay, RARβ. The settings on record: read-out: RAR Bind. Ki β.
Excerpt: as §1, §2, §3

Experiment [6] deals with RXRβ. The experiment is described as follows: ligand binding assay, RXRβ. Particulars: read-out: RXR Bind Ki β.
Excerpt: as §1, §2, §3

The target of experiment [7] is T1, RXRα. The experiment is described as follows: holoreceptor transactivation assay, RXRα. The settings on record: for EC50: holoreceptor transactivation, RXRα, read-out: RXR Trans. EC50 α; for Emax: relative to 10^-6 M cyclopropyl penta-2,4-dienoic acid reference (RXRs), read-out: % efficacy (RXRα transactivation). The experiment is classed as cell-based.
Excerpt: as §1, §2, §3

The target of experiment [8] is T5, RXRγ (Mus musculus, UniProt P28705).
T5 construct: expressed in transfected cells
T5 sequence (P28705 1-463): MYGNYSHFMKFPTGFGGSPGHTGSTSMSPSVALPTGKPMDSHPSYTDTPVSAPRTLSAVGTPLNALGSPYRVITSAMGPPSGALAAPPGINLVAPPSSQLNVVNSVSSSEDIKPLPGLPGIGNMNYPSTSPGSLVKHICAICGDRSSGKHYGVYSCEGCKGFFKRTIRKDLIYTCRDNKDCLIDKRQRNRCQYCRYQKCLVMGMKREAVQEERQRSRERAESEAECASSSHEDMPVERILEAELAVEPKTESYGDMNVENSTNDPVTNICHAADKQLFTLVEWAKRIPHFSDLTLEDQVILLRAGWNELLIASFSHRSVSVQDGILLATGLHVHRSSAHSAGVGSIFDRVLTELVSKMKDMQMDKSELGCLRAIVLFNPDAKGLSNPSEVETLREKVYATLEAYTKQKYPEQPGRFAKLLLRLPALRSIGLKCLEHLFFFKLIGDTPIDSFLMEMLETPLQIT
Nature of the experiment: holoreceptor transactivation assay, RXRγ. The experiment is classed as cell-based. Particulars: for EC50: holoreceptor transactivation, RXRγ, read-out: RXR Trans. EC50 γ; for Emax: relative to 10^-6 M cyclopropyl penta-2,4-dienoic acid reference (RXRs), read-out: % efficacy (RXRγ transactivation).
Excerpt: as §1, §2, §3

Experiment [9] addresses T6, RXRβ (Mus musculus, UniProt P28704).
T6 construct: expressed in transfected cells
T6 sequence (P28704 1-520): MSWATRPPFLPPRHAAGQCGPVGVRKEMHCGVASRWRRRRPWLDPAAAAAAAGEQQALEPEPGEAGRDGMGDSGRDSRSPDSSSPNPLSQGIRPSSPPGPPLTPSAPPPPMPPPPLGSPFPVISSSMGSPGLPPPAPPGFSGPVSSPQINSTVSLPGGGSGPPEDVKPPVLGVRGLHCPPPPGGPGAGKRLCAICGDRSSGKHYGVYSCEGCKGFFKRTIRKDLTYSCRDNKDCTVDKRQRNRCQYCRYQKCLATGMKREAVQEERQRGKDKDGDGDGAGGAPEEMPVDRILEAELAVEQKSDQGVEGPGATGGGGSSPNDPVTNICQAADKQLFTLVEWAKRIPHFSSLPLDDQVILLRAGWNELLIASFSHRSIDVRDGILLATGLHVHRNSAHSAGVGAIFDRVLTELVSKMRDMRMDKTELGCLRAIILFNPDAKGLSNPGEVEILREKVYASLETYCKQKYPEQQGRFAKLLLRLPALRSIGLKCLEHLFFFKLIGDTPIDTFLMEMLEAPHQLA
Nature of the experiment: holoreceptor transactivation assay, RXRβ. The experiment is classed as cell-based.
Excerpt: as §1, §2, §3

A value given as a limit tells only on which side of the number the result lay.

As usually defined, the Ki is a measure of affinity in units of concentration, obtained from inhibition or displacement. In the case of `Cc1cc(N(C)c2ccc(C(=O)O)cc2)cc2c1OCC2(C)C` [Compound 26, 4-[Methyl-(3,3,7-trimethyl-2,3-dihydro-benzofuran-5-yl)-amino]-benzoic acid], the Ki in experiment [1] was 10 µM; in experiment [2], more than 30 µM; in experiment [3], 6.7 µM; in experiment [4], more than 100 µM; in experiment [5], more than 30 µM; in experiment [6] it was more than 100 µM.

The term EC50 denotes the concentration that produces a half-maximal response. For the molecule `CCc1cc(N(C)c2ccc(C(=O)O)cc2)cc2c1OCC2(C)C` [Compound 28, 4-[Methyl-(7-ethyl-3,3-dimethyl-2,3-dihydro-benzofuran-5-yl)-amino]-benzoicacid], the Ki in experiment [1] was more than 10 µM; in experiment [2], 9.4 µM; in [3] it was 4.5 µM; in experiment [4], more than 10 µM; in experiment [5], more than 10 µM; in experiment [6], more than 10 µM. Besides, the EC50 in experiment [7] and in experiment [8] was more than 1 µM throughout. The Emax is 25% in experiment [7] and 15% in [8].

Take `Cc1cc(N(c2ccc(C(=O)O)cc2)C(C)C)cc2c1OCC2(C)C` [Compound 41, 4-[Isopropyl-(3,3,7-trimethyl-2,3-dihydro-benzofuran-5-yl)-amino]-benzoic acid]: the Ki in experiment [1] was 9.2 µM; in experiment [2], more than 30 µM; in experiment [3] it was more than 30 µM; in experiment [4], more than 100 µM; in experiment [5], more than 30 µM; in experiment [6] it was more than 100 µM. In addition, the concentration for a half-maximal effect (EC50) in [7] is 1 µM. For the same molecule, the Emax in experiment [7] came out at 75%.

For `CCN(c1ccc(C(=O)O)cc1)c1cc2c(c(C(C)C)c1C)OCC2(C)C` [Compound 70, 4-[Ethyl-(7-isopropyl-3,3,6-trimethyl-2,3-dihydro-benzofuran-5-yl)-amino]-benzoic acid], the EC50 in [7] was 0.011 µM; in experiment [9] (holoreceptor transactivation, RXRβ, read-out: RXR Trans. EC50 β) it was 0.073 µM; in [8], 0.018 µM. In addition, the Emax in experiment [7] stood at 119%; in experiment [9] (relative to 10^-6 M cyclopropyl penta-2,4-dienoic acid reference (RXRs), read-out: % efficacy (RXRβ transactivation)) it was 113%; in experiment [8], 120%.
